In the NIST ThermoML archive (doi:10.1016/j.jct.2012.03.005):
± gives the expanded uncertainty stated by the source.

Columns and labels:
[1] = 101.33 kPa, Liquid, Vibrating tube method
[2] = activity coefficient (dimensionless); of the first substance listed, at infinite dilution; xn = mol fraction of the nth substance listed; details: 101 kPa, Liquid, Chromatography, x1 = 0

## CCn1cc[n+](C)c1.CS(=O)(=O)[O-] [1-ethyl-3-methylimidazolium methanesulfonate]
[1]; 298.15 K
  mass density: 1239.96 ± 0.43 kg/m3
[1]; 308.15 K
  mass density: 1233.22 ± 0.42 kg/m3
[1]; 318.15 K
  mass density: 1226.51 ± 0.42 kg/m3
[1]; 328.15 K
  mass density: 1219.84 ± 0.41 kg/m3
[1]; 338.15 K
  mass density: 1213.2 ± 0.41 kg/m3
[1]; 348.15 K
  mass density: 1206.63 ± 0.4 kg/m3
[1]; 358.15 K
  mass density: 1200.08 ± 0.4 kg/m3

## O [water] + CCn1cc[n+](C)c1.CS(=O)(=O)[O-]
[2]; 318.15 K
  activity coefficient: 0.071 ± 0.03
[2]; 328.15 K
  activity coefficient: 0.075 ± 0.03
[2]; 338.15 K
  activity coefficient: 0.079 ± 0.03
[2]; 348.15 K
  activity coefficient: 0.083 ± 0.03
[2]; 358.15 K
  activity coefficient: 0.088 ± 0.03

## CCC(=O)CC [pentan-3-one] + CCn1cc[n+](C)c1.CS(=O)(=O)[O-]
[2]; 308.15 K
  activity coefficient: 8.08 ± 0.55
[2]; 318.15 K
  activity coefficient: 7.96 ± 0.54
[2]; 328.15 K
  activity coefficient: 7.86 ± 0.54
[2]; 338.15 K
  activity coefficient: 7.75 ± 0.53
[2]; 348.15 K
  activity coefficient: 7.63 ± 0.52
[2]; 358.15 K
  activity coefficient: 7.53 ± 0.51

## C#CCCCCCC [1-octyne] + CCn1cc[n+](C)c1.CS(=O)(=O)[O-]
[2]; 308.15 K
  activity coefficient: 26.2 ± 1.8
[2]; 318.15 K
  activity coefficient: 26.2 ± 1.8
[2]; 328.15 K
  activity coefficient: 25.6 ± 1.8
[2]; 338.15 K
  activity coefficient: 25.3 ± 1.7
[2]; 348.15 K
  activity coefficient: 25.1 ± 1.7

## C=CCCCCCCCC [1-decene] + CCn1cc[n+](C)c1.CS(=O)(=O)[O-]
[2]; 308.15 K
  activity coefficient: 654 ± 45
[2]; 318.15 K
  activity coefficient: 584 ± 40
[2]; 328.15 K
  activity coefficient: 528 ± 36
[2]; 338.15 K
  activity coefficient: 479 ± 33
[2]; 348.15 K
  activity coefficient: 434 ± 30
